Measured values reported in a melting point compilation (Tetko et al.).

Row | SMILES | melting point
1 | CCS(=O)(=O)c1cccc(C(=O)O)c1 | 160 to 162 °C
2 | O=C(O)c1ccccc1Cc1nc2ccccc2c(=O)[nH]1 | 283 to 285 °C
3 | CC(NC(=O)C1CCOCC1)C(=O)O (stereo unspecified) | 178 to 180 °C
4 | CC(C)(C)Cc1cc(N)n[nH]1 | 106 to 108 °C
5 | COC(=O)c1cc(S(=O)(=O)Cl)cn1C | 78 to 80 °C
6 | NS(=O)(=O)c1cnn(Cc2ccccc2)c1 | 157 to 159 °C
7 | COc1ccc(C(=O)O)cc1OCCO | 190 to 192 °C
8 | O=C(O)CCN1C(=O)C2C3CCC(O3)C2C1=O (stereo unspecified) | 185 to 187 °C
9 | CCOC(=O)COc1ccc(C#N)cc1OC | 69 to 71 °C
10 | C=CC(=O)Nc1cccc(Cl)c1 | 106 to 108 °C
11 | CCN1CCN(S(=O)(=O)c2ccc(CCC(=O)O)cc2)CC1 | 239 to 241 °C
12 | Cc1cccc(Cn2cccc(C(=O)O)c2=O)c1 | 189 to 191 °C
13 | CC(=O)c1ccc(CNC(=O)OC(C)(C)C)nc1C | 72 to 74 °C
14 | O=C(OCc1ccccc1)N1CCCC1CS(=O)(=O)Cl (stereo unspecified) | 60 to 62 °C
15 | CN1CC(=O)N(c2cccc([N+](=O)[O-])c2)C1=O | 144 to 146 °C
16 | CC(N)c1ccc(NC(=O)NC2CC2)cc1 (stereo unspecified) | 142 to 144 °C
17 | Cc1cccc(NCCC(N)=O)c1 | 91 to 93 °C
18 | C#Cc1ccc(C(=O)O)nc1 | 181 to 183 °C
19 | O=C1CCc2cc(S(=O)(=O)Cl)c(F)cc2N1 | 207 to 209 °C

Row | SMILES | melting point
20 | COc1ccc(NC(=O)C(C)Cl)c(OC)c1 (stereo unspecified) | 65 to 67 °C
21 | CNS(=O)(=O)c1ccc(N)cc1C | 117 to 119 °C
22 | CC12CSCC(=O)N1C(C(=O)O)CS2 (stereo unspecified) | 202 to 204 °C
23 | COC(=O)c1ccc(F)cc1N | 62 to 64 °C
24 | O=C(NC(Cc1ccc(O)cc1)C(=O)O)c1cnccn1 (stereo unspecified) | 234 to 236 °C
25 | O=C(O)c1noc(-c2ccccc2F)n1 | 189 to 191 °C
26 | Brc1cnc2nccnc2c1 | 158 to 160 °C
27 | CC(CC(N)=NO)NC(=O)OC(C)(C)C (stereo unspecified) | 96 to 98 °C
28 | Nc1cc(-c2ccc(OC(F)F)cc2)no1 | 88 to 90 °C
29 | CC(CC(=O)O)NC1=NS(=O)(=O)c2ccccc21 (stereo unspecified) | 245 to 247 °C
30 | CCOC(=O)c1c(Cl)nc2ccccc2c1C | 109 to 111 °C
31 | O=C(O)C(Cc1ccccc1)Cc1ccc(Cl)cc1 (stereo unspecified) | 79 to 81 °C
32 | CCOC(=O)c1c(N)cc(OC)cc1OC | 61 to 63 °C
33 | NC(=O)OCC(F)(F)F | 42 to 44 °C
34 | Cc1c(C(=O)O)nnn1-c1ccc(Cl)cc1F | 164 to 166 °C
35 | O=C(O)CCCN1C(=O)CCc2ccccc21 | 179 to 181 °C
36 | COC(=O)c1ccc2c(Cl)ncnc2c1 | 104 to 106 °C
37 | NC1CCN(c2c(F)cccc2F)C1=O (stereo unspecified) | 62 to 64 °C
38 | CSc1ncc(C(=O)O)n1-c1ccccc1 | 206 to 208 °C

Row | SMILES | melting point
39 | N#Cc1cccc(CCl)c1 | 67 to 70 °C
40 | O=C1CCOc2ccc(Br)cc21 | 73 to 75 °C
41 | Clc1cnc(N2CCNCC2)c(Cl)c1 | 59 to 61 °C
42 | O=C(O)c1cncnc1-c1ccccc1 | 141 to 143 °C
43 | O=C(O)c1cc(S(=O)(=O)NCCCN2CCCC2=O)ccc1Cl | 98 to 100 °C
44 | Nc1noc(C2CC2)n1 | 84 to 86 °C
45 | CC1CN(Cc2ccccc2N)CC(C)O1 (stereo unspecified) | 93 to 95 °C
46 | Cc1ccsc1C1CC1C(=O)O (stereo unspecified) | 58 to 60 °C
47 | COc1ccccc1NC(=O)CC1Nc2ccccc2NC1=O (stereo unspecified) | 172 to 174 °C
48 | O=C1CCCC1c1ccc(Cl)c(Cl)c1 (stereo unspecified) | 63 to 65 °C
49 | N#CC1(C(=O)O)CCOCC1 | 162 to 164 °C
50 | O=C(O)c1ccc(CN(Cc2ccccc2)S(=O)(=O)c2ccc(Cl)cc2)cc1 | 203 to 205 °C
51 | O=C(O)C1CC2(CCCC2)C1 | 29 to 31 °C
52 | CC(C)(C)OC(=O)N1CCc2ccccc2C1C(=O)O (stereo unspecified) | 142 to 144 °C
53 | N#Cc1cc(Cl)nc2ccc([N+](=O)[O-])cc12 | 173 to 175 °C
54 | NC(Cc1ccco1)C(=O)O (stereo unspecified) | 179 to 181 °C
55 | Clc1nccc(N2CCCC2)n1 | 121 to 123 °C
56 | Cc1ccc(S(=O)(=O)N2CCC(=O)CC2)cc1 | 125 to 127 °C
